Laboratory results as given in patent US7279502B2, “Polyamine analog conjugates and quinone conjugates as therapies for cancers and prostate diseases” (Cellgate, Inc., priority 1999, dated 2007).
Read-outs that look alike come from different tables or passages of the source.

Columns and labels:
Type in all cases: cell-based
[1] = test system: human breast carcinoma cell line, MCF7; experiment: MTT assay, quinones, MCF7; conditions: Table 4, treatment time not given in cell, read-out: ID50 Breast MCF7
Experimental: (§1) Cell Culture: The human lung adenocarcinoma cell line, A549, and human prostatic cancer cell line, DUPRO, were a gift from Dr. M. Eileen Dolan, University of Chicago, Department of Medicine. A549 was grown in Ham's F-12K medium (Fisher Scientific, Itasca, Ill.) supplemented with 10% fetal bovine serum and 2 mM L-glutamine. DUPRO was grown in RPMI-1640 supplemented with 10% fetal bovine serum. The human colon carcinoma cell line, HT29, and the human breast carcinoma cell line, MCF7, were obtained from the American Type Culture Collection, Rockville, Md. HT29 cells were grown in McCoy's 5A medium (Gibco, BRL, Gaithersburg, Md.) supplemented with 10% fetal bovine serum. MCF7 cells were grown in Richter's Improved Modified Eagle's medium supplemented with 10% fetal bovine serum and 2.2 g/L sodium bicarbonate. The human prostate adenocarcinoma cell lines, LNCAP, PC-3 and DU145, were gifts from Dr. George Wilding, University of Wisconsin Comprehensive Cancer Center and the Department of Medicine, and were grown in Dulbecco's Modified Eagle's medium supplemented with a 5% fetal bovine serum. The malignant glioma cell line, U251MG NCI was obtained from the brain tumor tissue bank at the University of California, San Francisco Department of Neurosurgery, and was grown in Dulbecco's Modified Eagle's medium supplemented wth 10% fetal bovine serum. DUPRO, A549 and MCF7 cells were grown in 100 units/mL penicillin and 100 μg/mL streptomycin. HT29 and U251MG NCI cells were grown in 50 μg/mL gentamycin. LNCAP, PC-3 and DU145 cells were maintained in 1% antibiotic antimycotic solution (Sigma, St. Louis, Mo.). All cell cultures were maintained at 37° C. in 5% CO2/95% humidified air.
(§2) MTT assay. Exponentially growing monolayer cells were plated in 96 well plates at a density of 500 cells/well and allowed to grow for 24 h. Serially diluted drug solutions were added such that the final drug concentrations in the treatment media were between 0 and 35 μM. Cells were incubated with drug at either 4 hr or 72 hr. After 4 hr and 72 hr treatment, drugs were removed, fresh media (without) drug (100 uL) was added and cells were incubated for 6 days. After six days, 25 μL of a Dulbecco's phosphate-buffered saline solution containing 5 mg/mL of MTT (Thiazolyl blue) (Sigma) was added to each well and incubated for 4 h at 37° C. Then 100 μL of lysis buffer (20% sodium dodecyl sulfate, 50% N,N-dimethylformamide and 0.8% acetic acid, pH 4.7) was added to each well and incubated for an additional 22 h. A microplate reader (E max, Molecular Devices, Sunnyvale, Calif.) set at 570 nm was used to determine the optical density. Results were plotted as a ratio of the optical density in drug treated wells to the optical density in wells treated with vehicle alone. Plotting and estimation of ID50 values were accomplished with manufacturer supplied software. The data is presented below in Tables 3, 4, 5 and 6.

[2] = test system: human prostate adenocarcinoma cell line PC-3; experiment: MTT assay, quinones, PC-3; conditions: Table 3, treatment time not given in cell, read-out: ID50 PC-3
Experimental: as §1, §2

[3] = test system: human colon cancer cells HT29; experiment: MTT assay, polyamine analogs, HT29; conditions: for EC50: HT-29, survival of cultured HT29 cells, figure legends, read-out: ED50 (the source's name); for IC50: HT-29, 144 h, read-out: concentration needed for 50% growth inhibition (ID50) HT-29, Table 2, MTT six days after drug treatment
Experimental: (§3) As shown in Table 2 and FIGS. 1-32, several novel conformationally restricted polyamine analogs were tested for anti-proliferative properties against cancer cells.
(§4) Human breast cancer cell line MCF7 was grown in Richter's Improved Modified Eagle's Medium supplemented with 10% fetal bovine serum (FBS) and 2.2 g/L sodium bicarbonate. Human brain tumor cell line U251 MG-NCI was grown in Dulbecco's Modified Eagle's Medium supplemented with 10% FBS. Human lung cancer cell line A549 was grown in Ham's F-12K medium (Cellgro, Mediatech, Inc., VA), supplemented with 10% FBS and 2 mM L-glutamine. Human colon cancer cell line HT29 was cultured in McCoy's 5A medium (Gibco, BRL, Gaithersburg, Md.) supplemented with 10% FBS. Human prostate cancer cell lines PC-3, LNCAP and DuPro were grown in RPMI 1640 Medium (Cellgro, Mediatech, Inc., VA) supplemented with 10% FBS. Another human prostate cancer cell line DU145 was grown in Dulbecco's Modified Eagle's Medium (Gibco, BRL, Gaithersburg, Md.) supplemented with 5% FBS. The A549, MCF7, PC3, LNCAP and DuPro cell lines were cultured in 100 units/mL penicillin and 100 μg/mL streptomycin. HT29 and U251MG cell lines were grown in 50 μg/mL gentamycin (Gibco, BRL, Gaithersburg, Md.). DU145 cell line was maintained in 1% antibitic-antimycotic solution (Sigma, St. Louis, Mo.). The cell cultures were maintained at 37° C. in 5% CO2/95% humidified air. DuPro cells were obtained from M. Eileen Dolan, University of Chicago. All other cells are available from the American Type Culture Collection, Rockville, Md.
(§5) A conventional MTT assay was used to evaluate percent cell survival. Exponentially growing monolayer cells were plated in 96-well plates at a density of 500 cells per well and allowed to grow for 24 hours. Serial dilutions of the drugs were added to the wells. Six days after drug treatment, 25 μl of MTT solution (5 mg/ml) was added to each well and incubated for 4 hours at 37° C. Then 100 μl of lysis buffer (20% sodium dodecyl sulfate, 50% DMF, and 0.8% acetic acid, pH 4.7) was added to each well and incubated for an additional 22 hours. A microplate reader (“EMAX”-brand, Molecular Devices, Sunnyvale, Calif.) set at 570 nm was used to determine the optical density of the cultures. Results are expressed as a ratio of the optical density in drug-treated wells to the optical density in wells treated with vehicle only.

[4] = test system: human prostate cancer cells PC3; experiment: MTT assay, polyamine analogs, PC3; conditions: for EC50: PC-3, survival of cultured PC3 cells, figure legends, read-out: ED50 (the source's name)
Experimental: as §4, §5

[5] = test system: human lung cancer cells A549; experiment: MTT assay, polyamine analogs, A549; conditions: for EC50: A549, survival of cultured A549 cells, figure legends, read-out: ED50 (the source's name)
Experimental: as §3, §4, §5

[6] = test system: human prostate cancer cells LNCAP; experiment: MTT assay, polyamine analogs, LNCAP; conditions: survival of cultured LNCAP cells, figure legends, read-out: ED50 (the source's name)
Experimental: as §4
A conventional MTT assay was used to evaluate percent cell survival. Exponentially growing monolayer cells were plated in 96-well plates at a density of 500 cells per well and allowed to grow for 24 hours. Serial dilutions of the drugs were added to the wells. Six days after drug treatment, 25 μl of MTT solution (5 mg/ml) was added to each well and incubated for 4 hours at 37° C. […] A microplate reader (“EMAX”-brand, Molecular Devices, Sunnyvale, Calif.) set at 570 nm was used to determine the optical density of the cultures. Results are expressed as a ratio of the optical density in drug-treated wells to the optical density in wells treated with vehicle only.

[7] = test system: human brain tumor cells U251 MG NCI; experiment: MTT assay, polyamine analogs, U251 MG NCI; conditions: for EC50: U-251, survival of cultured U251 MG NCI cells, figure legends, read-out: ED50 (the source's name); for IC50: U-251, 144 h, read-out: concentration needed for 50% growth inhibition (ID50) U251MG, Table 2, MTT six days after drug treatment
Experimental: as §4, §5

[8] = test system: human prostate cancer cells DU145; experiment: MTT assay, polyamine analogs, DU145; conditions: for EC50: figure legends, read-out: ED50 (the source's name); for IC50: DU-145, 144 h, read-out: concentration needed for 50% growth inhibition (ID50) DU-145, Table 2, MTT six days after drug treatment
Experimental: as §4, §5

[9] = test system: human breast cancer cells MCF7; experiment: MTT assay, polyamine analogs, MCF7; conditions: for IC50: MCF7, 144 h, read-out: concentration needed for 50% growth inhibition (ID50) MCF7, Table 2, MTT six days after drug treatment; for EC50: MCF7, survival of cultured MCF7 cells, figure legends, read-out: ED50 (the source's name)
Experimental: as §3, §4, §5

[10] = test system: human prostate cancer cells DUPRO; experiment: MTT assay, polyamine analogs, DUPRO; conditions: for IC50: 144 h, read-out: concentration needed for 50% growth inhibition (ID50) DUPRO, Table 2, MTT six days after drug treatment; for EC50: survival of cultured DUPRO cells, figure legends, read-out: ED50 (the source's name)
Experimental: as §4, §5

[11] = Homo sapiens, DU-145, survival of cultured DU145 cells
[12] = Homo sapiens, A549, 144 h, read-out: concentration needed for 50% growth inhibition (ID50) A549, Table 2, MTT six days after drug treatment
[13] = read-out: concentration needed for 50% growth inhibition (ID50) A549, Table 2, MTT six days after drug treatment

Row | Compound | IC50 [3] | IC50 [5, 12] | IC50 [9] | IC50 ([8]; Homo sapiens) | IC50 ([10]; Homo sapiens, DuPro) | EC50 [3] | EC50 [4] | EC50 ([5]; Homo sapiens) | EC50 [7] | EC50 [8, 11] | IC50 [7] | EC50 [9] | further results
1 | CCCCN/C=C1\C=C(O)C(=O)c2ccccc21 [SL-11089] |  |  |  |  |  |  |  |  |  |  |  |  | IC50 [1]: > 31.2 µM; IC50 [2]: 11 µM
2 | CCNCCCCNCC1CC1CNCCCCNCC (centres unmarked) [SL-11093] |  |  |  |  |  | 0.4 µM | 1.6 µM | 0.26 µM | 0.07 µM | 0.016 µM |  |  | EC50 ([6]; Homo sapiens, LNCaP): 0.21 µM
3 | CCNCCCNCc1ccccc1CNCCCNCC [SL-11094] | 28.8 µM | > 31.2 µM | > 31.2 µM | 12.6 µM |  | 28.8 µM | > 31.2 µM | > 31.2 µM | > 31.2 µM | 15.4 µM | > 31.2 µM | > 31.2 µM | 
4 | CCCCN(CC1=CC(=O)C(=O)c2ccccc21)C(=O)CCC(=O)N1CCOCC1 [SL-11096] |  |  |  |  |  |  |  |  |  |  |  |  | IC50 [1]: 3.8 µM; IC50 [2]: 3.6 µM
5 | CCNCCCCNCC1CC1CNCCCCNCC (centres unmarked) [SL-11098] | 0.4 µM | 0.51 µM |  | 0.018 µM | 0.08 µM |  |  |  |  |  | 0.1 µM |  | 
6 | CCNCCCCNCC1CCC1CNCCCCNCC (centres unmarked) [SL-11100] |  |  |  |  |  |  |  |  |  |  |  |  | IC50 [5, 13]: 2.2 µM
7 | CCNCCCCNCCCCNCCCCNCCCCNC/C=C\CNCCCCNCCCCNCCCCNCCCCNCC [SL-11150] |  |  |  |  |  |  |  |  |  |  |  |  | EC50 [6]: 0.23 µM; EC50 [10]: 0.48 µM; EC50 ([8]; survival of cultured DU145 cells): 0.11 µM

Now from value to compound, other results behind:

Row | IC50 [3] | IC50 [5, 12] | IC50 [9] | IC50 ([8]; Homo sapiens) | IC50 ([10]; Homo sapiens, DuPro) | Compound | EC50 [3] | EC50 [4] | EC50 ([5]; Homo sapiens) | EC50 [7] | EC50 [8, 11] | IC50 [7] | EC50 [9] | further results
8 | 1 µM |  | 26.3 µM | 0.014 µM |  | CCNCCCCNCC1CCC1CNCCCCNCC (centres unmarked) [SL-11099] | 1 µM | 2.5 µM | 0.51 µM | 0.11 µM | 0.014 µM | 0.11 µM | 26.3 µM | IC50 [5, 13]: 0.65 µM
9 | 0.73 µM | 12.4 µM | > 31.2 µM | 0.027 µM | 0.15 µM | CCNCCCCNC/C=C\CNCCCCNCC [SL-11102] | 0.73 µM | > 31.2 µM | 0.15 µM | 0.15 µM | 0.03 µM | 0.15 µM | > 31.2 µM | EC50 ([10]; Homo sapiens, DuPro): 0.15 µM
10 | 25.8 µM | 0.43 µM | > 31.2 µM | 9.4 µM |  | CCNCCCCNCc1ccccc1CNCCCCNCC [SL-11104] | 25.8 µM | > 31.2 µM | > 31.2 µM | 14.7 µM | 9.4 µM | 14.7 µM | > 31.2 µM | 
11 | 25.2 µM | > 31.2 µM | > 31.2 µM | 1.6 µM | > 31.2 µM | CCNCCCNCC1CCCC1NCCCNCC (centres unmarked) [SL-11105] | 25.2 µM | > 31.2 µM | 0.43 µM | 25.9 µM | 1.6 µM | 25.9 µM | > 31.2 µM | IC50 ([4]; 144 h, read-out: concentration needed for 50% growth inhibition (ID50) PC-3, Table 2, MTT six days after drug treatment): > 31.2 µM; EC50 ([10]; Homo sapiens, DuPro): 0.43 µM
12 | 0.97 µM |  |  | 0.08 µM | 0.44 µM | CCNC/C=C\CNC/C=C\CNCCCCNCC [SL-11119] | 0.97 µM | > 31.2 µM |  |  | 0.08 µM |  |  | EC50 ([10]; Homo sapiens, DuPro): 0.44 µM
